# Read-outs that look alike come from different tables or passages of the source.
# System: HSV-2
# Test: Plaque reduction assay, HSV-2 clinical isolates on Vero cells
# Format: cell-based
# Details: Human alphaherpesvirus 2, Vero
# Text: Viral isolates were used to infect a sub-confluent monolayer of Vero cells at a concentration of 75 or 50 plaque forming units (PFU) per well for HSV-1 and HSV-2, respectively. […] CMC medium typically used to create a semisolid interface and prevents indiscrimate viral spreading. Other materials (e.g. agar) may also be used to create this interface.
# Cells were fixed with 10% formalin and stained with crystal violet before enumeration of the plaques (microscopic observation or use of fluorescent antibodies for detection is also suitable). The data obtained from these experiments were then expressed as percent inhibition of viral infectivity relative to the no drug control.
# Definitions of phenotypic drug susceptibility classification as sensitive or resistant were as follows: ACV, <3 μM or >40 μM; PCV, <10 μM or >40 μM; CDV, <24 μM or >30 μM; FOS, <250 μM or >400 μM; and ACV, <6.5 μM or >40 μM; PCV, <38 μM or >40 μM; FOS, <250 μM or >400 μM for HSV-1 and HSV-2, respectively. Any IC50 values falling in between these sensitive and resistant cut-offs were reported as intermediate resistance.
# The phenotype (i.e. reactivity to a drug) of the virus was characterised by the plaque reduction assay as described above. The present inventors have characterised the resistance-causing phenotype of a large number of TK and DNA pol mutations.
smiles,measurement,setting,value
"Nc1nc2c(ncn2CCC(CO)CO)c(=O)[nH]1 [Penciclovir, penciclovir]",IC50,"isolate HPG001, HSV-2 TK A125T (373G>A), read-out: Drug susceptibility (IC50 value)",8.2 µM
same,IC50,"isolate HPG001, HSV-2 TK A125T (373G>A), read-out: Drug susceptibility Penciclovir (PCV)",< 38 µM
same,IC50,"isolate HPG001, HSV-2 pol H714R (2141A>G), read-out: Drug susceptibility (IC50 value)",8.2 µM
same,IC50,"isolate HPG001, HSV-2 pol H714R (2141A>G), read-out: Drug susceptibility Penciclovir (PCV)",< 38 µM
same,IC50,"isolate HPG004, HSV-2 pol M494T (1481T>C), also pol S729N, read-out: Drug susceptibility (IC50 value)",> 160 µM
same,IC50,"isolate HPG004, HSV-2 pol M494T (1481T>C), also pol S729N, read-out: Drug susceptibility Penciclovir (PCV)",> 40 µM
same,IC50,"isolate HPG007, HSV-2 pol R628G (1882C>G), read-out: Drug susceptibility (IC50 value)",> 160 µM
same,IC50,"isolate HPG007, HSV-2 pol R628G (1882C>G), read-out: Drug susceptibility Penciclovir (PCV)",> 40 µM
same,IC50,"isolate HPG017, HSV-2 TK Q186H (558G>T), read-out: Drug susceptibility (IC50 value)",64.7 µM
same,IC50,"isolate HPG017, HSV-2 TK Q186H (558G>T), read-out: Drug susceptibility Penciclovir (PCV)",> 40 µM
same,IC50,"isolate HPG022, HSV-2 TK E213D (639A>C), read-out: Drug susceptibility (IC50 value)",26.9 µM
same,IC50,"isolate HPG022, HSV-2 TK E213D (639A>C), read-out: Drug susceptibility Penciclovir (PCV)",< 38 µM
same,IC50,"isolate HPG022, HSV-2 pol D174Y (520G>T), read-out: Drug susceptibility (IC50 value)",26.9 µM
same,IC50,"isolate HPG022, HSV-2 pol D174Y (520G>T), read-out: Drug susceptibility Penciclovir (PCV)",< 38 µM
same,IC50,"isolate HPG023, HSV-2 TK Q186H (558G>T), read-out: Drug susceptibility (IC50 value)",31.1 µM
same,IC50,"isolate HPG023, HSV-2 TK Q186H (558G>T), read-out: Drug susceptibility Penciclovir (PCV)",< 38 µM
same,IC50,"isolate HPG024, HSV-2 TK E213D (639A>C), read-out: Drug susceptibility (IC50 value)",9.08 µM
same,IC50,"isolate HPG024, HSV-2 TK E213D (639A>C), read-out: Drug susceptibility Penciclovir (PCV)",< 38 µM
same,IC50,"isolate HPG028, HSV-2 TK 98stop or A94fs (276delG, 278delG, 279delG, or 280delG), read-out: Drug susceptibility (IC50 value)",> 160 µM
same,IC50,"isolate HPG028, HSV-2 TK 98stop or A94fs (276delG, 278delG, 279delG, or 280delG), read-out: Drug susceptibility Penciclovir (PCV)",> 40 µM
same,IC50,"isolate HPG028, HSV-2 pol E776Q (2326G>C), also TK deletion (G) nt 276-280, read-out: Drug susceptibility (IC50 value)",> 160 µM
same,IC50,"isolate HPG028, HSV-2 pol E776Q (2326G>C), also TK deletion (G) nt 276-280, read-out: Drug susceptibility Penciclovir (PCV)",> 40 µM
same,IC50,"isolate HPG028, HSV-2 pol R775C, R775W (2323C>T; 2325C>G), also TK deletion (G) nt 276-280, read-out: Drug susceptibility (IC50 value)",> 160 µM
same,IC50,"isolate HPG028, HSV-2 pol R775C, R775W (2323C>T; 2325C>G), also TK deletion (G) nt 276-280, read-out: Drug susceptibility Penciclovir (PCV)",> 40 µM
same,IC50,"isolate HPG030, HSV-2 TK Q90stop (268C>T), read-out: Drug susceptibility (IC50 value)",> 160 µM
same,IC50,"isolate HPG030, HSV-2 TK Q90stop (268C>T), read-out: Drug susceptibility Penciclovir (PCV)",> 40 µM
same,IC50,"isolate HPG030, HSV-2 pol E761K (2281G>A), also TK Q90stop, read-out: Drug susceptibility (IC50 value)",> 160 µM
same,IC50,"isolate HPG030, HSV-2 pol E761K (2281G>A), also TK Q90stop, read-out: Drug susceptibility Penciclovir (PCV)",> 40 µM
same,IC50,"isolate HPG034, HSV-2 TK L313S (938A>C), read-out: Drug susceptibility Penciclovir (PCV)",> 40 µM
same,IC50,"isolate HPG036, HSV-2 TK E84K (250G>A), read-out: Drug susceptibility (IC50 value)",> 160 µM
same,IC50,"isolate HPG036, HSV-2 TK E84K (250G>A), read-out: Drug susceptibility Penciclovir (PCV)",> 40 µM
same,IC50,"isolate HPG038, HSV-2 TK R34C (100C>T), read-out: Drug susceptibility (IC50 value)",9.64 µM
same,IC50,"isolate HPG038, HSV-2 TK R34C (100C>T), read-out: Drug susceptibility Penciclovir (PCV)",< 38 µM
same,IC50,"isolate HPG044, HSV-2 TK M86L (256A>C), read-out: Drug susceptibility (IC50 value)",> 160 µM
same,IC50,"isolate HPG044, HSV-2 TK M86L (256A>C), read-out: Drug susceptibility Penciclovir (PCV)",> 40 µM
same,IC50,"isolate HPG048, HSV-2 TK Q90stop (268C>T), read-out: Drug susceptibility (IC50 value)",> 160 µM
same,IC50,"isolate HPG048, HSV-2 TK Q90stop (268C>T), read-out: Drug susceptibility Penciclovir (PCV)",> 40 µM
same,IC50,"isolate HPG048, HSV-2 pol E761K (2281G>A), also TK Q90stop, read-out: Drug susceptibility (IC50 value)",> 160 µM
same,IC50,"isolate HPG048, HSV-2 pol E761K (2281G>A), also TK Q90stop, read-out: Drug susceptibility Penciclovir (PCV)",> 40 µM
same,IC50,"isolate HPG057, HSV-2 TK 98stop or A94fs (276delG, 278delG, 279delG, or 280delG), read-out: Drug susceptibility (IC50 value)",> 160 µM
same,IC50,"isolate HPG057, HSV-2 TK 98stop or A94fs (276delG, 278delG, 279delG, or 280delG), read-out: Drug susceptibility Penciclovir (PCV)",> 40 µM
same,IC50,"isolate HPG058, HSV-2 TK 183stop or P154fs (458delC, 459delC, 460delC, or 461delC), read-out: Drug susceptibility (IC50 value)",> 160 µM
same,IC50,"isolate HPG058, HSV-2 TK 183stop or P154fs (458delC, 459delC, 460delC, or 461delC), read-out: Drug susceptibility Penciclovir (PCV)",> 40 µM
same,IC50,"read-out: Drug susceptibility (IC50 value), isolate HPG034, HSV-2 TK L313S (938A>C)",> 160 µM
same,IC50,"read-out: Drug susceptibility (IC50 value), isolate HPG056, HSV-2 pol M447L (1339A>C)",8.61 µM
same,IC50,"read-out: Drug susceptibility Penciclovir (PCV), isolate HPG056, HSV-2 pol M447L (1339A>C)",< 38 µM
